According to patent US20090264648A1, “SYNTHESIS OF PYRAZOLES” (WYETH, priority 2008, published 2009):
“Also recorded” adds a separate entry of the source. Counter-ions that a name gives are not always drawn. Like-named read-outs stand apart in the source and are kept apart here. Blank lines part the entries; values can stand above or below the compound they belong to.

Assays:
[1] = Hygroscopicity noted on isolation of the hydrochloride salt; type: physicochemical; details: salt precipitated from DCM with HCl in Et2O
Experimental: 5-(4-acetyl-[1,4]diazepan-1-yl)-pentanoic acid [5-(4-methoxy-phenyl)-1H-pyrazol-3-yl]-amide (1.05 g, 2.54 mmol) was dissolved in a minimum amount of DCM (5 mL) and cooled to 0° C. HCl (2.0 M in Et20, 1.4 mL, 2.89 mmol) was added and the mixture stirred at rt until precipitation of the salt was complete (about 10 min.). The solid was filtered, washed with Et2O several times, and dried in a dessicator to yield 1.09 g of the hydrochloride salt (2.42 mmol, 95% yield). […] MS (ES+): 414.26 (M+H)^+.

[2] = Hygroscopicity test / Dynamic Vapor Sorption (DVS) of hydrochloride salt crystal forms; type: physicochemical; details: for Water absorbed eventually: 90% RH
Experimental: Evidence of a hydrochloride hydrate was not observed after the hygroscopicity test.
Dynamic Vapor Sorption (DVS) was done at 25-26° C.

SMILES: COc1ccc(-c2cc(NC(=O)CCCCN3CCCN(C(C)=O)CC3)[nH]n2)cc1 (as salt: hydrochloric acid salt) [5-(4-Acetyl-[1,4]diazepan-1-yl)-pentanoic acid [5-(4-methoxy-phenyl)-2H-pyrazol-3-yl]-amide]
melting point: 185 °C

SMILES: COc1ccc(-c2cc(NC(=O)CCCCN3CCCN(C(C)=O)CC3)[nH]n2)cc1 [Form II, 5-(4-acetyl-1,4-diazepan-1-yl)-N-(5-(4-methoxyphenyl)-1H-pyrazol-3-yl)pentanamide hydrochloric salt Form II]
Hygroscopicity (in words) [2]: non-hygroscopic
Water absorbed eventually ([2]; DVS at 25-26° C.): up to 7%
Relative humidity (RH) at which the form picks up moisture ([2]; DVS at 25-26° C.): about 20%
Water held at low RH ([2]; RH 0%, DVS at 25-26° C.): 2%
Water at RH 50% ([2]; listed as Crystal Form II): hygroscopic (5%
Hygroscopicity (in words), Crystal Form Table ([2]; listed as Crystal Form II): Somewhat

Second part, led by results:

Hygroscopicity of the sample [1]: extreme hygroscopicity
melting point: 132 to 133 °C
SMILES: COc1ccc(-c2cc(NC(=O)CCCCN3CCCN(C(C)=O)CC3)n[nH]2)cc1.Cl [Compound I, 5-(4-acetyl-1,4-diazepan-1-yl)-N-(5-(4-methoxyphenyl)-1H-pyrazol-3-yl)pentanamide hydrogen chloride]

Hygroscopicity (in words), Crystal Form Table [2]: Hygroscopic
Water at RH 50% [2]: 7%
SMILES: COc1ccc(-c2cc(NC(=O)CCCCN3CCCN(C(C)=O)CC3)[nH]n2)cc1 [Crystal Form V, 5-(4-Acetyl-[1,4]diazepan-1-yl)-pentanoic acid [5-(4-methoxy-phenyl)-2H-pyrazol-3-yl]-amide]

Evidence of a hydrochloride hydrate after the hygroscopicity test [2]: not observed
Hygroscopicity (in words) [2]: relatively non-hygroscopic
Moisture gained ([2]; 70-100% RH): at least 2%
Water absorbed eventually ([2]; DVS at 25-26° C.): up to 2%
Relative humidity (RH) at which the form picks up moisture ([2]; DVS at 25-26° C.): about 50%
Moisture gained when equilibrated ([2]; RH less than or equal to 70%): about 0.5%
Hygroscopicity (in words), Crystal Form Table ([2]; listed as Crystal Form I): Non-hygroscopic
SMILES: COc1ccc(-c2cc(NC(=O)CCCCN3CCCN(C(C)=O)CC3)[nH]n2)cc1 [Form I, 5-(4-acetyl-1,4-diazepan-1-yl)-N-(5-(4-methoxyphenyl)-1H-pyrazol-3-yl)pentanamide hydrochloric salt Form I]
Behaviour of absorbed water on decreasing RH [2]: loses it without significant hysteresis on decreasing RH; also recorded: loses the water as RH decreases

Hygroscopicity (in words), Crystal Form Table ([2]; listed as Crystal Form III): Hygroscopic
SMILES: COc1ccc(-c2cc(NC(=O)CCCCN3CCCN(C(C)=O)CC3)[nH]n2)cc1 [Form III, 5-(4-Acetyl-[1,4]diazepan-1-yl)-pentanoic acid [5-(4-methoxy-phenyl)-2H-pyrazol-3-yl]-amide]
